SMILES strings stand for the structures. Some results are limits rather than exact numbers.

The values below come from a melting point compilation (Tetko et al.; mined from patent text by program, amines drawn as free bases though some values may be those of a salt).

One may read the melting point as the temperature, or range, at which the solid turns liquid. As for `Cc1cc(-c2nc3cc(F)cc(F)c3s2)ccc1N`, the melting point lay in the range of 201 to 203 °C.

For `N#Cc1c(N2CC[C@@H](C3(N)CC3)C2)ccc2c(=O)c(C(=O)O)cn([C@@H]3C[C@@H]3F)c12`, the melting point lay within 138 to 140 °C. In the case of `CCOC(=O)c1ccc(Cn2c(C)nc3ccc(C(=O)NS(=O)(=O)c4ccccc4)nc32)c(Cl)c1` it was 196 to 197 °C. In the case of `COCCc1nc2c(N)nc3cc(-c4ccccc4)ccc3c2n1CCCCNS(C)(=O)=O` it was 201 to 202 °C. In the case of `CCCCc1nc2ccccn2c(=O)c1-c1ccc(Cl)c(OC)c1` it was 113 to 115 °C. `COC(=O)c1ccc2[nH]cc(C3=CCN(C)CC3)c2c1` came in with a melting point of 202 to 204 °C.

On to `C[Si](C)(C)c1cc(Cl)sc1C(=O)NCCOS(C)(=O)=O`, for which the melting point fell in the range of 82 to 86 °C. Then `Fc1ccccc1-c1n[nH]c(-c2ccccc2C(F)(F)F)n1`, with 153 to 155 °C; and `O=C(O)C(=O)c1ccc(OCCOc2ccc3ccccc3c2)cc1`, with 144 to 145 °C; and `CC(C)=CCOc1ccc(C(=O)C=Cc2ccco2)c(O)c1`, with 75 to 77 °C.

In turn, `NC(C(=O)O)c1cc(O)cc(O)c1[N+](=O)[O-]` (centres undefined) displayed a melting point greater than 280 °C.

Regarding `CS(=O)(=O)c1ccc(-c2cccn2-c2ccc(Cl)cc2)cc1`, the melting point was in the range of 184 to 188 °C. Then `Cn1nc2c(cc1=O)CCc1cc(O)ccc1-2`, with greater than 300 °C; and `COc1cc2c(c(OC)c1OC)C(C#N)N(C(=O)c1ccccc1)C=C2` (centres undefined), with 158 to 160 °C. Consider `COc1ccc(CN(C)CCCOc2ccc(NC(=O)c3cccc4c(=O)c5cccc(C)c5[nH]c34)c(C)c2)cc1OC`, for which the melting point came out at 146 °C.

In turn, `O=C(O)CC(C(=O)O)c1ccn2c(=O)c(C(=O)O)ccc2c1` (centres undefined) displayed a melting point of 250 °C. Then `O=C(c1ccc(SCCO)c([N+](=O)[O-])c1)c1ccc(SCCO)c([N+](=O)[O-])c1`, with 193 to 197 °C; and `CC(=O)OCCc1ccc(-c2csc(=O)s2)cc1`, with 55 to 56 °C; and `CC(C)C[C@H](NC(=O)c1ccc2c(c1)Nc1ccccc1S2)C(=O)N[C@H]1CCOC1OC(=O)CC(C)(C)C` (some centres undefined), with 111 to 113 °C. Then `CCCN(CCN1CCN(c2cccc(Cl)c2Cl)CC1)C1CCc2ncsc2C1` (centres undefined), with 104 °C; and `CC(=O)Nc1nc2ccc(OC(C)=O)cc2n1S(=O)(=O)N(C)C`, with 164 to 166 °C. Then `Cc1cc(NC(=O)C(C)(O)COc2ccccc2F)ccc1[N+](=O)[O-]` (centres undefined), with 94 to 96 °C; and `Cc1cc(-n2ccnc2)c2cccc(OCc3c(Cl)ccc(S(=O)(=O)N4CCC[C@H]4C(=O)N(C)CCN(C)CCCCO)c3Cl)c2n1`, with 84 °C. Consider `COc1ccc(N2C=Cc3cc(S(N)(=O)=O)sc3S2(=O)=O)cc1`, for which the melting point fell in the range of 90 to 92 °C.

As to `CC(=O)OC1CSC(Oc2cccc(I)c2)C(OC(C)=O)C1OC(C)=O` (centres undefined), the melting point is 127 °C. Turning to `C=Cc1ccc(-n2cnc([N+](=O)[O-])n2)c(C#N)c1`, the melting point was in the range of 103 to 105 °C.

In turn, `CC(=O)Nc1ccc(O)c(C(=O)C=Cc2ccccc2)c1` had a melting point of 162 to 165 °C.

With `C=CCOC(=O)c1cc(C23CC4CC(CC(C4)C2)C3)c(OC)cc1F`, the melting point is 101 to 102 °C.

As to `c1cc(-c2nccs2)cc(-n2cnc3cc(-c4ccoc4)ccc32)c1`, the melting point was 102 to 105 °C. Take `COc1ccc(C(=O)C=Cc2ccc(C#N)cc2)c(OC)c1OC`: the melting point lay within 132 to 133 °C. For `Cc1[nH]c(C)c(-c2ccc(Oc3ccc(OC(F)(F)F)cc3)cc2)c(=O)c1Cl`, the melting point was 298 to 302 °C.

As for `Cc1cc(F)ccc1-c1c(O)c(C)c(-c2ccc(F)cc2)oc1=O`, the melting point fell in the range of 191 to 193 °C. Then `COC(=O)c1c([N+](=O)[O-])cccc1S(=O)(=O)N(C)CCO`, with 98 to 101 °C.

As to `NS(=O)(=O)c1cc2nc[nH]c2cc1Cl`, the melting point was found to be 244 °C.

`CS(=O)(=O)c1ccc(C(=O)C2=C(O)C3CCC(C3)C2=O)c([N+](=O)[O-])c1` (centres undefined) came in with a melting point of 170 °C. Turning to `CC(C)C(O)(Cn1cncn1)c1ccc(C#CI)cc1` (centres undefined), the melting point amounted to 122 °C. Then `COc1cc(OC)c2c(c1)C(=O)c1cc(C)cc(OC)c1C2=O`, with 225 °C. `Nc1c2c(nc3cccc(F)c13)C1CCC2C1` (centres undefined) yielded a melting point of 173 °C. In the case of `CN1C(=O)[C@@H](NC(=O)c2ccc(C(F)(F)F)cc2)N=C(c2ccccc2)c2ccccc21` it was 125 to 127 °C; in that of `COC(=O)COc1cc(C)nc(NC(=O)NS(=O)(=O)c2cccs2)n1`, 114 to 120 °C.

Compound `O=C(O)CSCn1cnnn1` displayed a melting point of 98 to 101 °C. In the case of `Cc1cc(C#N)cc(C)c1OCCCc1ccc(CO)o1` it was 37 to 38 °C; in that of `CNCc1ccc2c(c1)C(Cc1ccnc(F)c1)(Cc1ccnc(F)c1)c1ccccc1-2`, 130 to 134 °C. Then `CN(C)CCCOc1cnc(-c2cccc(CO)c2)nc1`, with 95 to 97 °C; and `Cc1ccc(-c2n[nH]cc2-c2ccnc(Cl)n2)cc1`, with 194 to 197 °C; and `CC(C)(C)OC(=O)NCC1CCN(Cc2ccccc2)C1` (centres undefined), with 51 to 54 °C. Then `COc1ccc2c(c1)CCC1C2CCC2(C)C(=O)CCC12` (centres undefined), with 128 to 131 °C; and `CC(C)Nc1cccnc1N1CCN(C(=O)c2ccc(C(=O)N3CCN(C)CC3)cc2)CC1`, with 158 to 160 °C. Compound `CS(=O)(=O)c1ccc(/C(=C(\CC(=O)O)C(=O)O)c2ccc(Cl)cc2)cc1` displayed a melting point of 199 to 200 °C. On to `CCCCOC(=O)c1cc(OC)c(Cc2cnc(N)nc2N)c(OC)c1`, for which the melting point is 186 to 188 °C.

Turning to `CON=Cc1ccc2c(c1)ncn2-c1cccc(-c2ccncn2)c1`, the melting point was 180 to 182 °C. Take `COc1ccc(-c2nnc3c4ccccc4c(Nc4cccc(C(=O)Nc5ccc(N(C)C)cc5)c4)nn23)cc1`: the melting point was in the range of 314 to 318 °C. Then `COC(=O)Nc1cc(C(C)(C)C)cc(NC(=O)Nc2ccc(-c3ccc(CN4CCOCC4)nc3)c3ccccc23)c1OC`, with 192 to 193 °C; and `COC(=O)c1cccc(-c2nc(COc3ccc(C=O)cc3OC)c(C)o2)c1`, with 168 to 169 °C; and `CCC(=O)N1C(=O)OC(C)(C)[C@H]1c1ccccc1`, with 60 °C. `CCOC(=O)c1c(O)c2cc(F)cnc2n(Cc2ccc(OC)cc2)c1=O` gave a melting point of 163 °C. Consider `COC(=O)c1ccc2cc(OC)c(OC)cc2c1O`, for which the melting point was in the range of 144 to 145 °C. In the case of `Cc1ccc(S(=O)(=O)C[N+](=O)[O-])s1` it was 73 to 74 °C; in that of `CCCCc1cc(C)cc(=O)[nH]1`, 95 °C; in that of `Cn1ccc(=O)c(CO)c1`, 185 to 186 °C.

`O=Cc1cccc2nc(-c3ccccc3)oc12` displayed a melting point of 107 °C. Regarding `O=C(O)CC(CC(=O)O)Sc1nc2ccccc2s1`, the melting point was 153 to 154 °C. In the case of `Cc1c(CCCCCCCC(=O)O)cccc1C(=O)c1ccc(Cl)cc1` it was 70 °C. Then `CC(C)[Si](Oc1ccc([C@@H](O)[C@@H](C)N2CCC(O)(c3ccccc3)CC2)cc1F)(C(C)C)C(C)C` (relative stereo), with 140 to 141 °C; and `COc1ccc(C(=O)Nc2ccc(F)c(F)c2)cc1NS(=O)(=O)c1cccc(N)c1`, with 212 to 214 °C; and `COc1ccc(N2CC(=O)N(C)C(=O)N2)cc1`, with 179 to 181 °C. Compound `CC(Br)c1cccc2c(-c3ccccc3)onc12` (centres undefined) showed a melting point of 73 to 77 °C. Then `CNCc1cn(-c2ccccc2)nc1OCc1ccc(OCc2nc(-c3ccco3)oc2C)c(OC)c1`, with 103 to 104 °C. Compound `CC1CCN(c2ccc([N+](=O)[O-])cc2C(=O)c2ccc(Cl)cc2)CC1` returned a melting point of 136 °C.

Turning to `O=[N+]([O-])C=C1NCCCN1c1ccc(Cl)nc1`, the melting point worked out at 202 °C.

`COc1cc2c(cc1C(C)(C)C)CCC2Cc1c[nH]cn1` (centres undefined) came in with a melting point of 174 to 184 °C. Then `CC(C)(CN1CCCCC1)Nc1ccnc2cc(Cl)ccc12`, with 143 to 147 °C; and `CCOC(=O)c1c(NC(=O)NC(C)C)sc(C)c1C`, with 135 °C; and `COc1ccc(/C=C/C(=O)Nc2ccc(Br)cc2C(=O)O)cc1OC`, with 210 to 213 °C. On to `CC1CCN(c2nc(Nc3cc(C4CC4)n[nH]3)c3ccccc3n2)CC1`, for which the melting point was determined as 190 °C. In the case of `CC#CCOc1ccc(S(=O)(=O)NC(C(=O)NO)C(C)(C)SCCN2CCOCC2)cc1` (centres undefined) it was 72 °C; in that of `Nc1ccccc1-c1nc2ccccc2c(=O)o1`, 163 to 165 °C; in that of `N#Cc1c(Cl)ccc2cc(Cl)cnc12`, 222 °C.

`N#CC1CC(c2ccccc2Cl)=NC1c1ccc(-c2ccc(OC(F)(F)F)cc2)cc1` (centres undefined) displayed a melting point of 132 °C.

On to `Cc1cc(-n2ccnc2)c2cccc(OCc3c(Cl)ccc(S(=O)(=O)N4CCC[C@H]4C(=O)N(C)CCCN(C)C(=O)OC(C)(C)C)c3Cl)c2n1`, for which the melting point was determined as 70 °C. In the case of `CC(C)(C)c1ccc(OCC(O)CN2CCC(N3CCC4(CC3)CSC3=C(O4)c4ccccc4C(=O)C3=O)CC2)cc1` (centres undefined) it was 190 to 193 °C. Then `O=C(O)c1cn(CCO)c2cc(Cl)c(F)cc2c1=O`, with 266 °C; and `CC(=O)c1ccc(-c2ccc(C(N)=NO)o2)cc1`, with 197 to 199 °C; and `Cc1ncc2c(n1)-c1ccc(Cl)cc1C(c1ccccc1Cl)=NC2`, with 193 to 197 °C. In the case of `OCCCc1ccc(OCCN2CCOCC2)cc1Oc1ncc(C(F)(F)F)cc1Cl` it was 69.2 to 70.4 °C; in that of `CC(C)(C)[C@H](NC(=O)CCC1c2ccccc2-c2ccccc21)C(=O)O`, 79 to 83 °C. Compound `CCOC(=O)c1nn(-c2ccc(N(C)C)cc2)c(=O)c2c(N)scc12` had a melting point of 211 to 213 °C. In the case of `Cc1cc2c(s1)Oc1cccc(C)c1NC2=O` it was 198 to 200 °C; in that of `CC(C(=O)O)c1cccc2c1Oc1ccccc1CC2` (centres undefined), 133 to 134 °C.
